Experimental data reported in article PMC11121837, “Impact of Nitric Oxide-Release Kinetics on Antifungal Activity” (Journal of Fungi, 2024).
Values after ≈ are worked out from the molar mass of the structure shown.

What was measured:
[1] = Characterization of NO release (chemiluminescence nitric oxide analyzer); assay type: physicochemical; settings: phosphate-buffered saline 10 mM, pH 7.4, 37 °C
[2] = system: Candida albicans; assay: Susceptibility assay (MIC, broth microdilution, CLSI M27); assay type: cell-based; settings: for MIC: 24 h; for NO dose at MIC: calculated NO dose at MIC
[3] = system: Candida auris; assay: as above; assay type: cell-based; settings: for MIC / NO dose at MIC: Candidozyma auris; for MIC: 24 h; for NO dose at MIC: calculated NO dose at MIC
[4] = system: Cryptococcus neoformans; assay: as above; assay type: cell-based; settings: for MIC / NO dose at MIC: Cryptococcus neoformans; for MIC: 72 h; for NO dose at MIC: calculated NO dose at MIC
[5] = system: Aspergillus fumigatus spores; assay: Susceptibility assay for sporulating fungi (MIC, EUCAST E.Def.9.4); assay type: cell-based
[6] = system: C. albicans (ATCC MYA-2876); assay: Checkerboard assay of NO donors with antifungals; assay type: cell-based, Candida albicans
[7] = system: C. auris (ATCC MYA-5001); assay: Checkerboard assay of NO donors with antifungals; assay type: cell-based, Candida auris
[8] = system: C. neoformans (ATCC 208821); assay: Checkerboard assay of NO donors with antifungals; assay type: cell-based, Cryptococcus neoformans
[9] = system: C. auris (MYA-5001); assay type: cell-based, Candida auris
[10] = system: C. neoformans (ATCC208821); assay type: cell-based, Cryptococcus neoformans
[11] = system: MatTek EpiAirway tissue (AIR-100); assay: cells; assay type: cell-based; settings: Homo sapiens, 24 h, read-out: IC50 (concentration needed to inhibit tissue viability by 50%)
[12] = ATCC14053, Candida albicans ATCC 14053
[13] = ATCC18804, Candida albicans ATCC 18804
[14] = Cryptococcus neoformans ATCC MYA-4566
[15] = Cryptococcus neoformans ATCC MYA-4567
[16] = NO donor combined with 5-fluorocytosine
[17] = NO donor combined with amphotericin B
[18] = NO donor combined with butenafine
[19] = NO donor combined with caspofungin
[20] = NO donor combined with fluconazole
[21] = NO donor combined with miconazole

SMILES: NCCCNCCCCN(CCCN)/[N+]([O-])=N/O [SPER/NO, spermine/NO]
- [NO]max, maximum instantaneous NO concentration [1]: 7535 ± 222 ppb mg^−1
- [NO]t, total NO released over full duration [1]: 5.1 ± 0.2 µmol/mg
- td, duration of NO release [1]: 14.8 ± 2.9 h
- MIC [2, 12]: 250 µg/mL (≈ 953 µM)
- NO dose at MIC [2, 12]: 38.6 µg/mL
- MIC [2, 13]: 150 µg/mL (≈ 572 µM)
- NO dose at MIC [2, 13]: 23.1 µg/mL
- Selectivity Index (IC50 AIR-100 / MIC) ([2]; C. albicans ATCC 14053): 82
- Selectivity Index (IC50 AIR-100 / MIC) ([2]; C. albicans ATCC 18804): 137
- Selectivity Index (IC50 AIR-100 / MIC) ([2]; C. albicans ATCC MYA-2876): 164
- MIC ([2]; Candida albicans ATCC MYA-2876): 125 µg/mL (≈ 476 µM)
- NO dose at MIC ([2]; Candida albicans ATCC MYA-2876): 19.2 µg/mL
- Selectivity Index (IC50 AIR-100 / MIC) ([3]; C. auris ATCC MYA-5000): 164
- Selectivity Index (IC50 AIR-100 / MIC) ([3]; C. auris ATCC MYA-5001): 82
- Selectivity Index (IC50 AIR-100 / MIC) ([3]; C. auris ATCC MYA-5003): 164
- MIC ([3]; Candida auris ATCC MYA-5000): 125 µg/mL (≈ 476 µM)
- MIC ([3]; Candida auris ATCC MYA-5001): 250 µg/mL (≈ 953 µM)
- MIC ([3]; Candida auris ATCC MYA-5003): 125 µg/mL (≈ 476 µM)
- NO dose at MIC ([3]; Candida auris ATCC MYA-5000): 19.2 µg/mL
- NO dose at MIC ([3]; Candida auris ATCC MYA-5001): 38.6 µg/mL
- NO dose at MIC ([3]; Candida auris ATCC MYA-5003): 19.2 µg/mL
- Selectivity Index (IC50 AIR-100 / MIC) ([4]; C. neoformans ATCC 208821): 41
- Selectivity Index (IC50 AIR-100 / MIC) ([4]; C. neoformans ATCC MYA-4566): 1079
- Selectivity Index (IC50 AIR-100 / MIC) ([4]; C. neoformans ATCC MYA-4567): 263
- MIC [4, 14]: 19 µg/mL (≈ 72.4 µM)
- MIC [4, 15]: 78 µg/mL (≈ 297 µM)
- MIC ([4]; ATCC208821, 72 h, Cryptococcus neoformans ATCC 208821): 500 µg/mL (≈ 1910 µM)
- NO dose at MIC ([4]; ATCC208821, Cryptococcus neoformans ATCC 208821): 76.8 µg/mL
- NO dose at MIC [4, 14]: 3.08 µg/mL
- NO dose at MIC [4, 15]: 12 µg/mL
- Selectivity Index (IC50 AIR-100 / MIC) ([5]; A. fumigatus ATCC 1022): 293
- MIC ([5]; ATCC1022, Aspergillus fumigatus ATCC 1022 spores): 70 µg/mL (≈ 267 µM)
- NO dose at MIC ([5]; ATCC1022, Aspergillus fumigatus ATCC 1022 spores, calculated NO dose at MIC): 10.7 µg/mL
- checkerboard classification [6, 16]: I (indifferent (I))
- ∑FIC [6, 16]: ≥ 1
- checkerboard classification [6, 17]: I (indifferent (I))
- ∑FIC [6, 17]: ≥ 1
- checkerboard classification [6, 18]: I (indifferent (I))
- ∑FIC [6, 18]: ≥ 1
- checkerboard classification [6, 19]: I (indifferent (I))
- ∑FIC [6, 19]: ≥ 1
- checkerboard classification [6, 20]: I (indifferent (I))
- ∑FIC [6, 20]: ≥ 1
- checkerboard classification [6, 21]: S (Synergistic (S))
- ∑FIC [6, 21]: 0.265
- checkerboard classification [7, 16]: I (indifferent (I))
- ∑FIC [7, 16]: ≥ 1
- checkerboard classification [7, 17]: I (indifferent (I))
- ∑FIC [7, 17]: ≥ 1
- checkerboard classification [7, 18]: I (indifferent (I))
- ∑FIC [7, 18]: ≥ 1
- checkerboard classification [7, 19]: I (indifferent (I))
- ∑FIC [7, 19]: ≥ 1
- checkerboard classification [7, 20]: I (indifferent (I))
- ∑FIC [7, 20]: ≥ 1
- checkerboard classification [7, 21]: S (Synergistic (S))
- ∑FIC [7, 21]: 0.375
- checkerboard classification [8, 16]: I (indifferent (I))
- ∑FIC [8, 16]: ≥ 1
- checkerboard classification [8, 17]: I (indifferent (I))
- ∑FIC [8, 17]: ≥ 1
- checkerboard classification [8, 18]: A (additive (A))
- ∑FIC [8, 18]: 0.562
- checkerboard classification [8, 19]: I (indifferent (I))
- ∑FIC [8, 19]: ≥ 1
- checkerboard classification [8, 20]: I (indifferent (I))
- ∑FIC [8, 20]: ≥ 1
- checkerboard classification [8, 21]: S (Synergistic (S))
- ∑FIC [8, 21]: 0.500
- change in MIC or MFCs after serial passaging [9]: no changes
- outcome of passaging at sub-MIC dose [10]: yeast death after the second passage
- IC50 [11]: 20000 µg/mL (≈ 76200 µM)
